Tested on: 935938-334-R-J1-PDC spheroids with HUVEC/MSC, viability
Experiment: Anticancer human tumor 935938-334-R-J1-PDC patient-derived small intestine adenocarcinoma cell line growth inhibition [PI3K]
Conditions: for IC50: curve of first compound; for viability, T/C: stronger effect = lower value
Procedure, shortened: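 Tumor cells grown as multi-cell spheroids with HUVEC endothelial cells and MSC fibroblast-like stroma were treated with targeted agents combined with inavolisib, alpelisib, duvelisib or copanlisib. Doses fell in half-log steps from near clinical Cmax, else from 10 microM. Viability was measured.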
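Note: compound exposure lasted seven days before viability was read.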
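Throughout, for viability, T/C: percent of vehicle DMSO treated spheroid viability so 100% = untreated.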

## CNC(=O)c1ccc(N2C(=S)N(c3ccc(C#N)c(C(F)(F)F)c3)C(=O)C2(C)C)cc1F + CC(Nc1ncnc2nc[nH]c12)c1cc2cccc(Cl)c2c(=O)n1-c1ccccc1
Second compound 0.0316 µM
  IC50: > 10000 nM
Second compound 0.1 µM
  IC50: > 10000 nM
Second compound 0.316 µM
  IC50: > 10000 nM
Second compound 1 µM
  IC50: > 10000 nM
Second compound 3.16 µM
  IC50: > 10000 nM
Second compound 10 µM
  IC50: > 10000 nM
Second compound 0.0316 µM, first compound 0.0316 µM
  viability, T/C: 102%
Second compound 0.0316 µM, first compound 0.1 µM
  viability, T/C: 94.8%
Second compound 0.0316 µM, first compound 0.316 µM
  viability, T/C: 136%
Second compound 0.0316 µM, first compound 1 µM
  viability, T/C: 85.2%
Second compound 0.0316 µM, first compound 3.16 µM
  viability, T/C: 78.2%
Second compound 0.0316 µM, first compound 10 µM
  viability, T/C: 133%
Second compound 0.1 µM, first compound 0.0316 µM
  viability, T/C: 98.1%
Second compound 0.1 µM, first compound 0.1 µM
  viability, T/C: 84.4%
Second compound 0.1 µM, first compound 0.316 µM
  viability, T/C: 102%
Second compound 0.1 µM, first compound 1 µM
  viability, T/C: 90%
Second compound 0.1 µM, first compound 3.16 µM
  viability, T/C: 81.3%
Second compound 0.1 µM, first compound 10 µM
  viability, T/C: 84.7%
Second compound 0.316 µM, first compound 0.0316 µM
  viability, T/C: 100%
Second compound 0.316 µM, first compound 0.1 µM
  viability, T/C: 72.2%
Second compound 0.316 µM, first compound 0.316 µM
  viability, T/C: 95.3%
Second compound 0.316 µM, first compound 1 µM
  viability, T/C: 83.6%
Second compound 0.316 µM, first compound 3.16 µM
  viability, T/C: 95%
Second compound 0.316 µM, first compound 10 µM
  viability, T/C: 65.4%
Second compound 1 µM, first compound 0.0316 µM
  viability, T/C: 97.4%
Second compound 1 µM, first compound 0.1 µM
  viability, T/C: 83.9%
Second compound 1 µM, first compound 0.316 µM
  viability, T/C: 70.8%
Second compound 1 µM, first compound 1 µM
  viability, T/C: 69.7%
Second compound 1 µM, first compound 3.16 µM
  viability, T/C: 96%
Second compound 1 µM, first compound 10 µM
  viability, T/C: 73.5%
Second compound 3.16 µM, first compound 0.0316 µM
  viability, T/C: 72.8%
Second compound 3.16 µM, first compound 0.1 µM
  viability, T/C: 91.4%
Second compound 3.16 µM, first compound 0.316 µM
  viability, T/C: 103%
Second compound 3.16 µM, first compound 1 µM
  viability, T/C: 99.9%
Second compound 3.16 µM, first compound 3.16 µM
  viability, T/C: 61%
Second compound 3.16 µM, first compound 10 µM
  viability, T/C: 81.8%
Second compound 10 µM, first compound 0.0316 µM
  viability, T/C: 80.8%
Second compound 10 µM, first compound 0.1 µM
  viability, T/C: 92%
Second compound 10 µM, first compound 0.316 µM
  viability, T/C: 72.3%
Second compound 10 µM, first compound 1 µM
  viability, T/C: 71.6%
Second compound 10 µM, first compound 3.16 µM
  viability, T/C: 75.3%
Second compound 10 µM, first compound 10 µM
  viability, T/C: 63.9%

## Cn1cnc2c(F)c(Nc3ccc(Br)cc3Cl)c(C(=O)NOCCO)cc21 + CC(Nc1ncnc2nc[nH]c12)c1cc2cccc(Cl)c2c(=O)n1-c1ccccc1
Second compound 0.0316 µM
  IC50: 68.7 nM
Second compound 0.1 µM
  IC50: 110 nM
Second compound 0.316 µM
  IC50: 78.4 nM
Second compound 1 µM
  IC50: 81.4 nM
Second compound 3.16 µM
  IC50: 30.5 nM
Second compound 10 µM
  IC50: 51.5 nM
Second compound 0.0316 µM, first compound 0.00949 µM
  viability, T/C: 82.2%
Second compound 0.0316 µM, first compound 0.03 µM
  viability, T/C: 63.5%
Second compound 0.0316 µM, first compound 0.0949 µM
  viability, T/C: 43.2%
Second compound 0.0316 µM, first compound 0.3 µM
  viability, T/C: 34.5%
Second compound 0.0316 µM, first compound 0.949 µM
  viability, T/C: 27.5%
Second compound 0.0316 µM, first compound 3 µM
  viability, T/C: 21.8%
Second compound 0.1 µM, first compound 0.00949 µM
  viability, T/C: 76%
Second compound 0.1 µM, first compound 0.03 µM
  viability, T/C: 71.7%
Second compound 0.1 µM, first compound 0.0949 µM
  viability, T/C: 47.4%
Second compound 0.1 µM, first compound 0.3 µM
  viability, T/C: 38.2%
Second compound 0.1 µM, first compound 0.949 µM
  viability, T/C: 30.9%
Second compound 0.1 µM, first compound 3 µM
  viability, T/C: 20.8%
Second compound 0.316 µM, first compound 0.00949 µM
  viability, T/C: 73.5%
Second compound 0.316 µM, first compound 0.03 µM
  viability, T/C: 70.4%
Second compound 0.316 µM, first compound 0.0949 µM
  viability, T/C: 41.4%
Second compound 0.316 µM, first compound 0.3 µM
  viability, T/C: 35.4%
Second compound 0.316 µM, first compound 0.949 µM
  viability, T/C: 22.3%
Second compound 0.316 µM, first compound 3 µM
  viability, T/C: 20%
Second compound 1 µM, first compound 0.00949 µM
  viability, T/C: 73.9%
Second compound 1 µM, first compound 0.03 µM
  viability, T/C: 65.6%
Second compound 1 µM, first compound 0.0949 µM
  viability, T/C: 47.7%
Second compound 1 µM, first compound 0.3 µM
  viability, T/C: 30.9%
Second compound 1 µM, first compound 0.949 µM
  viability, T/C: 26.2%
Second compound 1 µM, first compound 3 µM
  viability, T/C: 22.6%
Second compound 3.16 µM, first compound 0.00949 µM
  viability, T/C: 51%
Second compound 3.16 µM, first compound 0.03 µM
  viability, T/C: 56.6%
Second compound 3.16 µM, first compound 0.0949 µM
  viability, T/C: 38.6%
Second compound 3.16 µM, first compound 0.3 µM
  viability, T/C: 30.6%
Second compound 3.16 µM, first compound 0.949 µM
  viability, T/C: 27.4%
Second compound 3.16 µM, first compound 3 µM
  viability, T/C: 16%
Second compound 10 µM, first compound 0.00949 µM
  viability, T/C: 65.2%
Second compound 10 µM, first compound 0.03 µM
  viability, T/C: 59.6%
Second compound 10 µM, first compound 0.0949 µM
  viability, T/C: 39.4%
Second compound 10 µM, first compound 0.3 µM
  viability, T/C: 25.6%
Second compound 10 µM, first compound 0.949 µM
  viability, T/C: 22.6%
Second compound 10 µM, first compound 3 µM
  viability, T/C: 17.6%

— PubChem BioAssay AID1963966 (Molecular Pharmacology Branch, DTP, NCI, 2024)
